Test results reported in US20030191096A1, “Method of hormonal therapy” (priority 2002, published 2003).

Tested on: male accessory sex glands and tissues in sexually immature castrated male rats
Experiment: Oral Hershberger Assay: weights of male accessory sex glands and tissues after ten days of oral gavage
Format: in vivo, rat
Details: ten consecutive days
Protocol: Applicants performed a set of experiments to identify the potential for a compound to mimic endogenous sex hormones. An in vivo study was performed using a short-term screening assay to identify changes in weights of male accessory sex glands and tissues in sexually immature castrated male rats. The study preformed is known in the art as an “Oral Hershberger Assay”.
This study included forty-two sexually immature castrated male rats that were randomly assigned to seven different groups and assigned formulations of the test article, oxandrolone, positive control article, 17α-methyl testosterone, or the vehicle, aqueous 0.5% methylcellulose. These formulations were administered orally via gavage once daily for ten consecutive days at dosages of 0 (vehicle), 1, 3 and 10 mg/kg/day. The dosage volume was 0.5 mL/kg, adjusted daily for body weight changes and were given at approximately the same time each day.
Approximately 24 hours after the last dosage administration the rats were euthanized via carbon dioxide asphyxiation. The following tissues were excised trimmed and weighed: liver, paired adrenal glands, paired kidneys, ventral prostate, seminal vesicles together with the coagulating gland, levator ani and bulbocavemous muscles, glands penis and cowper's gland. These tissues were retained in neutral buffered 10% formalin to be used for any possible future evaluation.
The following table presents the percent changes from the control group value.

SMILES | Cowpers Gland, percent changes from the control group value (1 mg/kg/day orally via gavage) [%] | Glands Penis, percent changes from the control group value (1 mg/kg/day orally via gavage) [%] | Levator Ani and Bulbocavernous, percent changes from the control group value (1 mg/kg/day orally via gavage) [%] | Prostate (Fixed), percent changes from the control group value (1 mg/kg/day orally via gavage) [%] | Prostate, percent changes from the control group value (1 mg/kg/day orally via gavage) [%] | Seminal Vesicles with Fluid, percent changes from the control group value (1 mg/kg/day orally via gavage) [%] | Cowpers Gland, percent changes from the control group value (3 mg/kg/day orally via gavage) [%] | Glands Penis, percent changes from the control group value (3 mg/kg/day orally via gavage) [%] | Levator Ani and Bulbocavernous, percent changes from the control group value (3 mg/kg/day orally via gavage) [%] | Prostate (Fixed), percent changes from the control group value (3 mg/kg/day orally via gavage) [%] | Prostate, percent changes from the control group value (3 mg/kg/day orally via gavage) [%] | Seminal Vesicles with Fluid, percent changes from the control group value (3 mg/kg/day orally via gavage) [%] | Cowpers Gland, percent changes from the control group value (10 mg/kg/day orally via gavage) [%] | Glands Penis, percent changes from the control group value (10 mg/kg/day orally via gavage) [%] | Levator Ani and Bulbocavernous, percent changes from the control group value (10 mg/kg/day orally via gavage) [%] | Prostate (Fixed), percent changes from the control group value (10 mg/kg/day orally via gavage) [%] | Prostate, percent changes from the control group value (10 mg/kg/day orally via gavage) [%] | Seminal Vesicles with Fluid, percent changes from the control group value (10 mg/kg/day orally via gavage) [%]
C[C@]12COC(=O)C[C@@H]1CC[C@@H]1[C@@H]2CC[C@@]2(C)[C@H]1CC[C@]2(C)O [Oxandro, oxandrolone] | 137.1 | 104.1 | 107.3 | 127.6 | 135.3 | 100.7 | 159.7 | 107.4 | 148.2 | 149.9 | 139.4 | 120.1 | 206.5 | 109.6 | 192.4 | 192.2 | 166.3 | 171.0
C[C@]12CCC(=O)C=C1CC[C@@H]1[C@@H]2CC[C@@]2(C)[C@H]1CC[C@]2(C)O [Meth-Test, 17α-methyl testosterone] | 88.7 | 127.9 | 111.0 | 101.9 | 97.0 | 89.6 | 179.0 | 102.6 | 114.2 | 119.0 | 109.1 | 118.0 | 237.1 | 122.9 | 139.7 | 234.0 | 222.5 | 194.4
